Values of other authors in paper PMC10686834, “Targeting myeloid chemotaxis to reverse prostate cancer therapy resistance” (Nature, 2023).
Like-named read-outs stand apart in the source and are kept apart here.

What was measured:
[1] = tested on: mCRPC patients; design: method as in ref (10) (a number printed in a supplementary file, which may have a reference list of its own: not looked up in the article's list); settings: ref (10), cited from earlier work
[2] = tested on: CYP2C9; design: method as in U.S enzalutamide Full Prescribing Information; settings: steady state; ref U.S enzalutamide Full Prescribing Information; cited from earlier work
[3] = tested on: CYP3A4; design: method as in U.S enzalutamide Full Prescribing Information; settings: steady state; ref U.S enzalutamide Full Prescribing Information; cited from earlier work
[4] = design: method as in U.S enzalutamide Full Prescribing Information; settings: ref U.S enzalutamide Full Prescribing Information, cited from earlier work
[5] = tested on: patients with progressive castration resistant prostate cancer previously treated with docetaxel; design: method as in ref (8) (a number printed in a supplementary file, which may have a reference list of its own: not looked up in the article's list); settings: AFFIRM, ref (8), cited from earlier work
[6] = tested on: CYP3A4; design: method as in U.S enzalutamide Full Prescribing Information; settings: single 160mg oral dose after multiple oral doses of itraconazole; ref U.S enzalutamide Full Prescribing Information; cited from earlier work
[7] = tested on: CYP2C19; design: method as in U.S enzalutamide Full Prescribing Information; settings: steady state; ref U.S enzalutamide Full Prescribing Information; cited from earlier work
[8] = tested on: chemotherapy naïve patients with progressive metastatic prostate cancer; design: method as in ref (17) (a number printed in a supplementary file, which may have a reference list of its own: not looked up in the article's list); settings: PREVAIL, ref (17), cited from earlier work

SMILES: C[C@]12CC[C@H](O)CC1=CC[C@@H]1[C@@H]2CC[C@]2(C)C(c3cccnc3)=CC[C@@H]12 [abiraterone]
- patients responding to abiraterone (PSA decline ≥50% below baseline maintained for ≥3 weeks) ([1]; patients with an NLR > 5): 16%
- patients responding to abiraterone (PSA decline ≥50% below baseline maintained for ≥3 weeks) ([1]; patients with an NLR ≤ 5): 49%

SMILES: CNC(=O)c1ccc(N2C(=S)N(c3ccc(C#N)c(C(F)(F)F)c3)C(=O)C2(C)C)cc1F [enzalutamide]
- CYP2C9 induction in humans [2]: moderate
- CYP3A4 induction in humans [3]: strong
- time to maximum plasma concentration (tmax) ([4]; after a single oral dose): 1 h
- time to reach steady state concentrations ([4]; daily oral administration): approximately 1 month
- average difference between peak (Cmax) and trough (Cmin) concentrations ([4]; steady state): 25%
- median overall survival ([5]; enzalutamide group (800 patients)): 18.4 months
- incidence of grade 3 adverse events ([5]; enzalutamide group): 45.3%
- HR, radiographic progression-free survival ([5]; enzalutamide vs placebo): 0.40
- HR, time to PSA progression ([5]; enzalutamide vs placebo): 0.25
- HR, time to first skeletal-related event ([5]; enzalutamide vs placebo): 0.69
- quality of life response rate ([5]; enzalutamide): 43%
- radiographic progression-free survival ([5]; enzalutamide): 8.3 months
- reduction in PSA level by 50% or more ([5]; enzalutamide): 54%
- soft tissue response rate ([5]; enzalutamide): 29%
- time to PSA progression ([5]; enzalutamide): 8.3 months
- time to first skeletal-related event ([5]; enzalutamide): 16.7 months
- liver-function abnormalities reported as adverse events ([5]; patients receiving enzalutamide): 1%
- increase of AUC0-inf of enzalutamide plus N-desmethyl-enzalutamide [6]: 1.3 fold
- CYP2C19 induction in humans [7]: moderate
- grade 3 or higher adverse events ([8]; enzalutamide group): 43%
- hypertension, grade 3 or higher ([8]; enzalutamide group): 7%
- patients alive at time of analysis ([8]; enzalutamide group): 72%
- rate of radiographic progression-free survival at 12 months ([8]; enzalutamide group): 65%
- HR, radiographic progression-free survival ([8]; enzalutamide vs placebo): 0.19
- HR, survival ([8]; enzalutamide vs placebo): 0.71
- HR, time to PSA progression ([8]; enzalutamide vs placebo): 0.17
- HR, time to initiation of cytotoxic therapy ([8]; enzalutamide vs placebo): 0.35
- HR, time until the first skeletal-related event ([8]; enzalutamide vs placebo): 0.72
- complete/partial soft tissue response ([8]; enzalutamide): 59%
- reduction in PSA level by 50% or more ([8]; enzalutamide): 78%
